Assay results from patent US10577364B2, “Crystalline form of fused pyridine derivative's maleate and uses thereof” (priority 2015, dated 2020).

How the values were obtained:
[1] = physchem; settings: water, thermodynamic from solid
Protocol: (§1) Kinetic solubility of the Crystalline Form of Formula I and N-(4-(2,3-dihydro-1H-pyrrolo[2,3-b]pyridin-4-yloxy)-3-fluorophenyl)-5-(4-fluorophenyl)-4-oxo-1,4-dihydropyridine-3-carboxamide (the Compound of Formula II) was studied in H2O at RT. After stirring approximate 4 mg solid in per 2 mL H2O at RT for a set amount of time, 0.6 mL suspension was centrifuged with the residual solids analyzed by XRPD and the concentrations in supernatants measured by high performance liquid chromatography (HPLC).

[2] = Long term stability storage, XRPD; assay type: physicochemical; settings: 25° C.±2° C./RH60%±10%, aluminum-plastic composite film bag, 0 m to 36 ms
Protocol: About 500 g of the Crystalline Form of Formula I was placed into a bag of aluminum-plastic composite film, and the bag was stored under conditions of 25° C.±2° C./RH60%±10% for 0 m, 3 ms, 6 ms, 9 ms, 12 ms, 18 ms, 24 ms, or 36 ms.

[3] = Pharmacokinetic study, oral administration to fasted SD rats; settings: for AUC(0-inf) / AUC(0-t) / Cmax / Tmax / half-life: SD, rat, plasma, po, 50 mg/kg
Excerpt: (§2) The Compound of Formula II and the Crystalline Form of Formula I were ground to fine particles. The material content (purity) was not less than 99.0%. Sodium carboxymethyl cellulose was medical supply graded.
(§3) Experimental animals: SD rats were divided to a Compound of Formula II group and a Crystalline Form of Formula I group, with both groups consisting of three males and three females.
(§4) Pharmaceutical preparation: each compound was formulated in 0.5% (w/v) aqueous sodium carboxymethyl cellulose and the final concentration of each compound was 10 mg/mL.
(§5) Administration and sample collection: each suspension was administered orally to fasted SD rats at a dose equivalent to 50 mg/kg the Compound of Formula II in a dose volume of 5 mL/kg. The blood samples were collected in EDTA-K pre anticoagulant tubes just before dosing (0 h) and at 0.5, 1, 1.5, 2, 4, 6, 8 and 24 hrs after dosing. The plasma from these samples was separated by centrifugation at 3000 rpm for 10 min at 4° C. The plasma samples were collected and stored at −80° C. until analysis.
(§6) Samples were analyzed by HPLC. Chemical ingredients were separated on a C18 DIKMA Platisil column (250×4.6 mm, 5 μm). An Isocratic mobile phase system consisting of acetonitrile-water (55:45) with 0.02 mol/L of sodium dihydrogen phosphate (adjusted pH to 6.0 by using sodium hydroxide solution) employed for sample analysis. The sample injection volume was 20 μL and the detection wavelength was 302 nm.

[4] = Kinetic solubility in H2O at RT; settings: for pH / Form Change: H2O, RT; for Form Change: residual solids by XRPD
Protocol: as §1

[5] = in vivo; settings: SD, rat, po, 50 mg/kg
Excerpt: as §2, §3, §4, §5, §6

[6] = Thermodynamic stability, stress test storage, XRPD; assay type: physicochemical; settings: 40° C.±2° C./RH75%±5%, aluminum-plastic composite film bag, 0 m, 1 m, 2 ms, 3 ms, or 6 ms
Protocol: About 500 g of the Crystalline Form of Formula I was placed into a bag of aluminum-plastic composite film, and the bag was stored under stress test conditions of 40° C.±2° C./RH75%±5% for 0 m, 1 m, 2 ms, 3 ms, or 6 ms.

[7] = water, thermodynamic from solid

O=C(Nc1ccc(Oc2ccnc3c2CCN3)c(F)c1)c1c[nH]cc(-c2ccc(F)cc2)c1=O.O=C(O)/C=C\C(=O)O [The Crystalline Form of Formula I, N-(4-(2,3-dihydro-1H-pyrrolo[2,3-b]pyridin-4-yloxy)-3-fluorophenyl)-5-(4-fluorophenyl)-4-oxo-1,4-dihydropyridine-3-carboxamide maleate]
solubility kinetic at 1 h [1]: 59 µg/mL
solubility kinetic at 4 h [1]: 47.8 µg/mL
solubility kinetic at 24 h [1]: 98.3 µg/mL
Crystalline Form determined by XRPD after storage (long term stability) [2]: purely the Crystalline Form of formula I
Absorption compared with the Compound of Formula II ([3]; SD rats, oral, dose equivalent to 50 mg/kg the Compound of Formula II): higher absorption than the Compound of Formula II
pH ([4]; 1 h): 4.3
Form Change ([4]; 1 h): No
pH ([4]; 4 hrs): 4.1
Form Change ([4]; 4 hrs): No
pH ([4]; 24 hrs): 3.8
Form Change ([4]; 24 hrs): No
AUC(0-inf) ([5]; female): 49300 ± 22200 ng·h/mL
AUC(0-t) ([5]; female): 46400 ± 21600 ng·h/mL
Cmax ([5]; female): 7500 ± 700 ng/mL
Tmax ([5]; female): 2 h
half-life ([5]; female): 3.7 ± 2.8 h
AUC(0-inf) ([5]; male): 17000 ± 6100 ng·h/mL
AUC(0-t) ([5]; male): 15900 ± 5100 ng·h/mL
Cmax ([5]; male): 3900 ± 700 ng/mL
Tmax ([5]; male): 2.7 ± 1.2 h
half-life ([5]; male): 1.7 ± 0.9 h
Crystalline Form determined by XRPD after storage (thermodynamic stability) [6]: purely the Crystalline Form of formula I

O=C(Nc1ccc(Oc2ccnc3c2CCN3)c(F)c1)c1c[nH]cc(-c2ccc(F)cc2)c1=O [The Compound of Formula II, N-(4-(2,3-dihydro-1H-pyrrolo[2,3-b]pyridin-4-yloxy)-3-fluorophenyl)-5-(4-fluorophenyl)-4-oxo-1,4-dihydropyridine-3-carboxamide]
AUC(0-inf) ([3]; female): 18200 ± 4600 ng·h/mL
AUC(0-t) ([3]; female): 9700 ± 6300 ng·h/mL
Cmax ([3]; female): 1900 ± 1100 ng/mL
Tmax ([3]; female): 6 ± 2 h
half-life ([3]; female): 4.7 ± 3.7 h
AUC(0-inf) ([3]; male): 17100 ± 7000 ng·h/mL
AUC(0-t) ([3]; male): 10100 ± 2900 ng·h/mL
Cmax ([3]; male): 2200 ± 600 ng/mL
Tmax ([3]; male): 4.5 ± 2.6 h
half-life ([3]; male): 6.4 ± 2.6 h
pH ([4]; 1 h): 7.2
Form Change ([4]; 1 h): No
pH ([4]; 4 hrs): 7.3
Form Change ([4]; 4 hrs): No
pH ([4]; 24 hrs): 7.3
Form Change ([4]; 24 hrs): No
solubility kinetic at 1 h [4, 7]: 0.8 µg/mL
solubility kinetic at 4 h [4, 7]: 1.1 µg/mL
solubility kinetic at 24 h [4, 7]: 0.5 µg/mL
